Active and inactive are the calls of the source. The calls are words filed in the database; no cut-off is given here.
What was measured:
[1] = tested on: HeLa; assay: Geno-toxicity in human HeLa cells assessed as induction of DNA damage at 0.2 mM at 37 degC by alkaline comet assay; assay type: functional, cell-based
[2] = tested on: HeLa; assay: Cytotoxicity against human HeLa cells assessed as decrease in cell viability at 0.5 mM in presence of 5 mM glucose after 14 hrs by WST-8 based CCK-8 assay; assay type: functional
[3] = tested on: HeLa; assay: Induction of ROS production in human HeLa cells at 0.2 mM after 24 hrs by H2DCFDA probe based fluorescence assay; assay type: functional, cell-based
[4] = tested on: HeLa; assay: Induction of mitochondrial membrane depolarization in human HeLa cells at 0.5 mM by JC-1 staining based flow cytometry; assay type: functional, cell-based
[5] = tested on: HeLa; assay: Induction of DNA damage in human HeLa cells at 0.1 mM in presence of antioxidant epikatehin after 1 hr by alkaline comet assay; assay type: functional, cell-based
[6] = tested on: HeLa; assay: Geno-toxicity in human HeLa cells assessed as induction of DNA damage at pH 12.1 after 1 hr by comet assay; assay type: functional, cell-based
[7] = tested on: HeLa; assay: Geno-toxicity in human HeLa cells assessed as induction of DNA damage at 0.2 mM at 4 degC by alkaline comet assay; assay type: functional, cell-based
[8] = tested on: Escherichia coli DH5[alpha]; assay: Induction of DNA damage in Escherichia coli DH5alpha supercoiled pUC19 DNA assessed as increase in open circular forms at 0.1 to 1 mM by ethidium bromide staining based agarose gel electrophoresis
[9] = tested on: Escherichia coli DH5[alpha]; assay: Induction of DNA damage in Escherichia coli DH5alpha supercoiled pUC19 DNA assessed as decrease in covalently closed circular DNA forms at 0.1 to 1 mM by ethidium bromide staining based agarose gel electrophoresis
[10] = tested on: HeLa; assay: Geno-toxicity in human HeLa cells assessed as induction of DNA damage after 1 hr by alkaline comet assay; assay type: functional, cell-based
[11] = tested on: HeLa; assay: Down regulation of NCOA7 mRNA expression in human HeLa cells at 0.5 mM after 1 hr by qRT-PCR method; assay type: functional, cell-based
[12] = tested on: HeLa; assay: Geno-toxicity in human HeLa cells assessed as induction of DNA damage by measuring double stranded DNA breaks at 0.19 to 0.76 mM after 1 hr by neutral comet assay; assay type: functional, cell-based
[13] = tested on: HeLa; assay: Induction of DNA damage in human HeLa cells at 0.1 mM in presence of antioxidant vitamin E after 1 hr by alkaline comet assay; assay type: functional, cell-based
[14] = tested on: HeLa; assay: Geno-toxicity in human HeLa cells assessed as induction of DNA damage at 0.2 mM by alkaline comet assay; assay type: functional, cell-based; conditions: TDE = time-dependent effect
[15] = tested on: HeLa; assay: Induction of oxidative DNA damage in human HeLa cells at 0.19 to 0.76 mM in presence of PBN spin trap after 1 hr by alkaline comet assay; assay type: functional, cell-based
[16] = tested on: HeLa; assay: Induction of DNA damage in human HeLa cells assessed as increase in oxidative DNA lesions by measuring oxidized purines at 0.1 mM preincubated for 1 hr followed by human 8-oxoguanine DNA N-glycosylase1 addition measured after 30 mins by alkaline comet assay; assay type: functional, cell-based
[17] = tested on: HeLa; assay: Induction of apoptosis in human HeLa cells at 0.5 mM after 4 hrs by Annexin-V-FITC/PI staining based flow cytometry; assay type: functional, cell-based
[18] = tested on: HeLa; assay: Upregulation of NOX5 mRNA expression in human HeLa cells at 0.5 mM after 1 hr by qRT-PCR method; assay type: functional, cell-based
[19] = tested on: HeLa; assay: Induction of DNA damage in human HeLa cells assessed as increase in oxidative DNA lesions by measuring oxidized pyrimidines at 0.1 mM preincubated for 1 hr followed by endonuclease3 addition measured after 30 mins by alkaline comet assay; assay type: functional, cell-based
[20] = tested on: HeLa; assay: Upregulation of FHL2 mRNA expression in human HeLa cells at 0.5 mM after 1 hr by qRT-PCR method; assay type: functional, cell-based
[21] = tested on: HeLa; assay: Induction of DNA damage in human HeLa cells assessed as increase in oxidative DNA lesions by measuring oxidized purines at 0.1 mM preincubated for 1 hr followed by formamidopyrimidine DNA glycosylase addition measured after 30 mins by alkaline comet assay; assay type: functional, cell-based
[22] = tested on: Escherichia coli DH5[alpha]; assay: Induction of DNA damage in Escherichia coli DH5alpha supercoiled pUC19 DNA assessed as increase in linear DNA forms at 0.1 to 1 mM by ethidium bromide staining based agarose gel electrophoresis
[23] = tested on: HeLa; assay: Geno-toxicity in human HeLa cells assessed as induction of DNA damage at 0.5 mM in presence of 5 mM glucose after 1 hr by alkaline comet assay; assay type: functional, cell-based
[24] = tested on: HeLa; assay: Geno-toxicity in human HeLa cells assessed as induction of DNA damage by measuring double stranded DNA breaks at 0.02 to 0.5 mM after 1 hr by neutral comet assay; assay type: functional, cell-based
[25] = tested on: HeLa; assay: Induction of oxidative DNA damage in human HeLa cells at 0.05 to 0.5 mM in presence of PBN spin trap after 1 hr by alkaline comet assay; assay type: functional, cell-based
[26] = tested on: HeLa; assay: Geno-toxicity in human HeLa cells assessed as induction of DNA damage at 0.1 mM at 37 degC by alkaline comet assay; assay type: functional, cell-based
[27] = tested on: HeLa; assay: Geno-toxicity in human HeLa cells assessed as induction of DNA damage at 0.1 mM at 4 degC by alkaline comet assay; assay type: functional, cell-based
[28] = tested on: HeLa; assay: Cytotoxicity against human HeLa cells assessed as decrease in cell viability at 0.6 mM in presence of 5 mM glucose after 14 hrs by WST-8 based CCK-8 assay; assay type: functional
[29] = tested on: HeLa; assay: Geno-toxicity in human HeLa cells assessed as induction of DNA damage at 0.1 mM by alkaline comet assay; assay type: functional, cell-based; conditions: TDE = time-dependent effect
[30] = tested on: HeLa; assay: Induction of ROS production in human HeLa cells at 0.1 mM after 24 hrs by H2DCFDA probe based fluorescence assay; assay type: functional, cell-based
[31] = tested on: HeLa; assay: Geno-toxicity in human HeLa cells assessed as induction of DNA damage at 0.6 mM in presence of 5 mM glucose after 1 hr by alkaline comet assay; assay type: functional, cell-based

| SMILES | Activity [4] | Activity [5] | Activity [6] | Activity [8] | Activity [9] | Activity [10] | Activity [11] | Activity [13] | Activity [16] | Activity [17] | Activity [18] | Activity [19] | Activity [20] | Activity [21] | Activity [22] | further results |
| --- | --- | --- | --- | --- | --- | --- | --- | --- | --- | --- | --- | --- | --- | --- | --- | --- |
| OC[C@@]1(O)SC[C@@H](O)[C@@H](O)[C@@H]1O | inactive | inactive | Dose-dependent effect | inactive | inactive | Dose-dependent effect | Active | inactive | Active | inactive | Active | Active | Active | Active | inactive | Activity [1]: inactive; Activity [2]: Active; Activity [3]: Active; Activity [7]: Active; Activity [12]: inactive; Activity [14]: Tde; Activity [15]: inactive; Activity [23]: Active |
| OC[C@H]1SC(O)[C@H](O)[C@@H](O)[C@@H]1O (stereo partly specified) | inactive | inactive | Dose-dependent effect | inactive | inactive | Dose-dependent effect | Active | inactive | Active | inactive | Active | Active | Active | Active | inactive | Activity [24]: inactive; Activity [25]: inactive; Activity [26]: inactive; Activity [27]: Active; Activity [28]: Active; Activity [29]: Tde; Activity [30]: Active; Activity [31]: Active |

Source: ChEMBL document CHEMBL3997790, “The oxidative induction of DNA lesions in cancer cells by 5-thio-d-glucose and 6-thio-d-fructopyranose and their genotoxic effects. Part 3” (Bioorg Med Chem Lett, 2017)
